{"source": "patent US9326972B2", "about": "“Use of phenylmethimazoles, methimazole derivatives, and tautomeric cyclic thiones for the treatment of autoimmune/inflammatory diseases associated with toll-like receptor overexpression” (Ohio University, priority 2004, dated 2016)", "key": {"[1]": {"test_system": "TLR3", "experiment": "TLR3 mRNA in NPA human thyrocytes (Northern)", "type": "cell-based", "conditions": "0.5 mM C10", "procedure": "In order to confirm the presence and functionality of TLR3 in human thyrocytes, we evaluated TLR3 expression in cultured NPA human thyrocytes. NPA thyrocytes are from a papillary carcinoma but are known to retain functional properties of normal thyrocytes. Transfection with dsRNA [Poly (I:C)], but not transfection by dsDNA or incubation with Poly (I:C), was able to increase TLR3 mRNA levels in Northern blots. The dsRNA, but not the dsDNA transfection, could also increase IFN-β mRNA levels, measured as before with PCR. Additionally, as was the case for FRTL-5 cells and dsRNA transfection, IFN-β increased PKR mRNA levels as well as TLR3 RNA levels.\nNPA-87 cells are a continuous line of human thyrocytes derived from papillary carcinoma cells. They retain several functional responses including TSH-increased cAMP signaling (J. Xu, et al., J Clin Endocrinol Metab, 88:4990-6 (2003)). They were kindly provided by Dr. Guy Julliard (University of California, Los Angeles, Calif.) and grown in RPMI 1640 medium supplemented with 2 g/liter sodium bicarbonate, 0.14 mM nonessential amino acids, 1.4 mM sodium pyruvate, and 10% fetal bovine serum, pH 7.2.\nRNA Isolation and Northern Analysis."}, "[2]": {"test_system": "IRF-1", "experiment": "LPS-increased IRF-1 mRNA and IRF-1 binding to MxISRE in RAW 264.7 macrophages (Northern, EMSA)", "type": "cell-based, mouse", "description": "IRF-1 is a transcription factor which is induced upon LPS stimulation of macrophages through a Stat1 dependent mechanism (Y. Ohmori, et al., J Leukoc Biol, 69:598-604 (2001)). Therefore IRF-1 provides another example of a response that may be affected by an inhibitor of LPS induced IFN-β signaling. Unlike other molecules studied thus far, IRF-1 acts as a transcription factor to directly bind to DNA to enhance transcription of other genes such as iNOS (R. Kamijo, et al., Science, 263:1612-5, (1994)). In macrophages treated with LPS, IRF-1 is required for the transcriptional control of the iNOS gene (R. Kamijo, et al., Science, 263:1612-5 (1994)). […] Typical LPS induction for each time point is observed in each LPS plus DMSO lane (FIG. 14A, lanes 2, 5, 8). […] The decrease by C10 is much greater than by MMI (FIG. 14A, lanes 6 and 9 vs 7 and 10, respectively). […] Specificity was observed upon incubation of extracts with unlabeled […] probe (FIG. 14B, lane 9). […] ID NO:23) and [NT] (469 bp) (SEQ ID NO:24); […] ID NO:25) and [NT] […] ID NO:27) and [NT] […] ID NO:29) and [NT] (586 bp) (SEQ ID NO:30). […] EMSA in RAW 264.7 cells: Nuclear extracts were prepared using NE-PER® extraction reagents (Pierce Chemical Co.; Rockford, Ill.) in the presence of a protease inhibitor cocktail (PMSF, Leupeptin, Pepstatin-A). Oligonucleotide sense strand probe sequences were as follows […] probe: [NT] […]"}}, "data": [{"smiles": "Cn1c(-c2ccccc2)cnc1S", "note": "[Compound C10, 5-Phenylmethimazole]", "values": [{"measurement": "dsRNA transfection- or IFN-β-increased TLR3 mRNA levels", "setting": "[1]", "value": "decreased"}, {"measurement": "LPS induced IRF-1 binding to the MxISRE element (EMSA)", "setting": "[2]; RAW 264.7, LPS 1 μg/mL 2 hours", "value": "dose dependent reduction"}, {"measurement": "LPS-increased IRF-1 mRNA", "setting": "[2]; RAW 264.7, LPS 1 μg/mL, 2 and 3 hours, Northern", "value": "strong reduction"}]}]}
